{
  "source": "patent US7033829B2",
  "about": "“Method to inhibit cell growth using oligonucleotides” (Trustees of Boston University, priority 2000, dated 2006)",
  "key": {"[1]": {"test_system": "serine 15-phosphorylated p53, E2F1 (cells lacking functional ATM)", "assay": "Western blot of p53 serine 15 phosphorylation and E2F1 in AT fibroblasts", "type": "cell-based, human", "details": "40 μM; 48 hours", "experimental": "Because the serine 15 site on p53 is known to be phosphorylated in an ATM-dependent manner after exposure to ionizing radiation (IR), we wished to examine the role of ATM in E2F1 induction and p53 serine 15 phosphorylation in response to the 11 mer-1. Fibroblasts from a patient with ataxia telangiectasia (AT) known to lack functional ATM protein, and age-matched normal control fibroblasts (N) were treated with either diluent, 40 μM 11mer-1, sham irradiation or IR (10 Gy). Cells were collected 3 hours (sham or IR) or 48 hours (diluent, 11mer-1) for western blot analysis to detect serine 15-phosphorylated p53 and total p53. In normal fibroblasts, the 11mer-1 induced a 10–15 fold increase in the level p53 phosphorylation on serine 15 compared to diluent-treated controls."}, "[2]": {"test_system": "UV-damaged CAT reporter plasmid in human keratinocytes", "assay": "Repair of UV-damaged CAT reporter plasmid in keratinocytes", "type": "cell-based", "details": "100 μM for five days before transfection; plasmid 100 mJ/cm^2 UVB", "source_text": "Expression of a UV-damaged reporter plasmid containing the bacterial chloramphenicol acetyltransferase (CAT) gene under the control of SV40 promoter and enhancer sequences was previously shown to detect decreased DNA repair capacity in human lymphocytes associated with aging and early-onset skin cancers. This reporter plasmid was used to measure the DNA repair capacity of normal neonatal human skin-derived fibroblasts and keratinocytes.\nKeratinocytes from newborns were established as described (Stanulis-Praeger, B. M. and Gilchrest, B. A., J. Cell. Physiol. 139:116–124 (1989)) using a modification of the method of Rheinwald and Green (Gilchrest, B. A. et al., J. Invest. Dermatol. 101:666–672 (1993)). First-passage keratinocytes were maintained in a non-differentiating low Ca^2+ medium (K-Stim, Collaborative Biomedical Products, Bedford, Mass.). […] CAT enzyme activity was determined using the liquid scintillation counting protocol and components of the assay system kit. […] Protein concentration in the cell extracts was determined by the method of Bradford (Anal. Biochem. 72:248 […]). CAT activity was expressed as c.p.m./100 μg protein and is represented as percent activity of cells transfected with sham-irradiated, non-damaged, plasmid."}, "[3]": {"test_system": "pCMV-Luc plasmid in human newborn fibroblasts", "assay": "Repair of singlet oxygen-damaged pCMV-Luc plasmid in fibroblasts", "type": "cell-based", "details": "100 μM 48 hours", "experimental": "The plasmid pCMV-Luc is a non-replicating vector containing a reporter gene, luciferase, under the control of a strong constitutive cytomegalovirus promoter (gift of Dr. Hedayati, Johns Hopkins University). Singlet oxygen-induced DNA damage of the plasmid was generated by irradiating the plasmid with visible light for different time intervals (0 min, 10 min and 20 min), in the presence of the photosensitizer methylene blue. Fibroblasts (human newborn), pretreated for 48 hours with 100 μM pTpT or with diluent alone, were transfected with 0.5 μg of pCMV-Luc using Lipofect Aminem (Promega, Madison, Wis.). After two days, plasmid-encoded luciferase activity was determined in cell extracts (Promega luciferase assay). Pretreatment with pTpT enhanced the repair of singlet oxygen-induced DNA damage after […] by 179% and 228% respectively. FIG. 26 represents luciferase activity as a percent of luciferase activity assayed in fibroblasts transfected with sham irradiated plasmid."}},
  "note": "Oligonucleotides are written 5' to 3', each unit as a sugar letter and its base; * is a phosphorothioate linkage, no mark a phosphodiester; rarer units and linkages stand in square brackets, end groups in braces. Plain capitals give the bases only. d = 2'-deoxy (DNA); {P} = phosphate",
  "data": [
    {"substance": "pGTTAGGGTTAG (DNA {P}-dGdTdTdAdGdGdGdTdTdAdG) [SEQ ID NO: 5]", "values": [
      {"measurement": "increase in p53 phosphorylation on serine 15", "setting": "[1]", "value": "< 50", "unit": "%"}
    ]},
    {"substance": "thymidine dinucleotide [pTpT]", "values": [
      {"measurement": "CAT activity relative to sham-irradiated transfected controls", "setting": "[2]", "value": "more than 50%"},
      {"measurement": "enhanced repair of singlet oxygen-induced DNA damage", "setting": "[3]; 10 mJ/cm^2", "value": 179, "unit": "%"},
      {"measurement": "enhanced repair of singlet oxygen-induced DNA damage", "setting": "[3]; 20 mJ/cm^2", "value": 228, "unit": "%"}
    ]}
  ]
}
